Patent EP1541559A1, “5-SUBSTITUTED ISOQUINOLINE DERIVATIVE” (Asahi Kasei Pharma Corporation, priority 2002, dated 2004)
Counter-ions that a name gives are not always drawn. Like-named read-outs stand apart in the source and are kept apart here.

Key:
[1] = system: ovalbumin-immunized guinea pigs; experiment: Respiratory tract constriction suppression action, ovalbumin-induced (Test Example 3); format: in vivo, Hartley guinea pigs; conditions: result in words; test medicament given into hind leg vein after induction with 0.3 mg/kg ovalbumin, measured for 15 minutes
Procedure: Four-week old Hartley guinea pigs (male) were immunized by intraperitoneal administration of ovalbumin (Sigma, Grade V) in amounts of 1 mg for each animal on the day on which the experiment was started, 3 mg for each animal after 2 days, and 10 mg for each animal after 4 days. Twelve to fourteen days after the final immunization, the ovalbumin-immunized guinea pigs were anesthetized by intraperitoneal administration of about 40 mg/kg of pentobarbital (Somnopentyl), and the tracheas were taken out. Subsequently, a cannula (SP-110, Natsume) was inserted into each trachea, and one end of the cannula was connected to an artificial respirator (Model-b83, Harvard). The aeration conditions were set at 6 ml per kilogram and 60 times per 1 minute. Further, a cannula for medicament administration (JMS wing needle 23G 3/4) was inserted into a hind leg vein. Myoblock (Organon Technica) was administered in an amount of 0.5 mg/kg from the cannula inserted into the hind leg vein to stop the spontaneous breathing, and after 2 or 3 minutes, 0.3 mg/kg of ovalbumin was administered to induce constriction of respiratory tract. The increase of airway resistance value 2 minutes after the induction (measurement apparatuses: pressure transducer TR-603T, respiratory amplifier AR-601G, and recorder RTA-3100, Nihon Kohden Corp.) was confirmed to be above 80 cm H2O or higher, and then, a solution of a test medicament was administered from the cannula inserted into the hind leg vein, and the airway resistance value was continuously measured for 15 minutes after the administration to determine the effect.

[2] = system: myosin regulatory light chain; experiment: Action on amount of phosphorylated myosin regulatory light chain in the cells (Test Example 1); format: cell-based, human; conditions: neutrophils of healthy volunteers, reaction with test compound at 25°C for 5 minutes, read-out: Inhibition of myosin regulatory light chain phosphorylation (IC50: µM)
Procedure: The neutrophils were washed with PBS(-) and resuspended in Hanks' Balanced Salt Solution (HBSS+, Gibco) to prepare a cell suspension (8 x 10^6/ml). The cell suspension was diluted to 5 x 10^6/ml, introduced into Eppendorf tubes in a volume of 0.4 ml each, then 0.1 ml each of solutions of a test compound at various concentrations were added to the suspension and allowed to react at 25°C for 5 minutes. After the reaction, 0.1 ml of trichloroacetic acid solution was added to each reaction, the reaction mixture was gently shaken and centrifuged at 12,000 rpm (4°C, 5 minutes), and the supernatant was removed. Subsequently, 3 μl of 1 M Tris solution was added to the residue, the mixture was further mixed with 50 μl of extraction buffer (8 M urea, 0.02% 2-mercaptoethanol, 0.002% bromophenol blue) and left stand at room temperature for 1 hour. Then, the reaction mixture was loaded on a spin column (0.45 μm, Millipore) to remove the insoluble solids and a sample buffer for SDS polyacrylamide gel electrophoresis (25 mM, Tris-HCl pH 6.8, 2.5% 2-mercaptoethanol, 2% sodium dodecylsulfate, 5% sucrose, 0.002% bromophenol blue as final concentrations) was added, and 10 μl of each sample was subjected to electrophoresis. […] J. Physiol., 274, […]-[…] (1998)), which specifically recognize the phosphorylated myosin regulatory light chain, and donkey anti-mouse IgG (Chemicon) conjugated with horseradish peroxidase (HRP-labeled). The band of the phosphorylated myosin regulatory light chain was detected on a film by using ECL Plus Kit (Amersham Pharmacia Biotech). This band was subjected to quantification using a densitometer. By using this value, the inhibitory ratio (%) for phosphorylation of the myosin regulatory light chain was calculated by using the following equation.

Neutrophils = experiment: Neutrophil migration inhibitory action, Boyden Chamber, FMLP (Test Example 5); format: cell-based, human; conditions: Homo sapiens, Neutrophil, 0.5 h, FMLP (1 µM), migration at 37°C for 30 minutes; read-out: Neutrophil migration inhibition IC50
Procedure: Neutrophils were isolated from 50 to 100 ml of peripheral blood collected from healthy donors by the method described in Test Example 1 to obtain a cell suspension (8 x 10^6/ml). Subsequently, solutions of a test compound at various concentrations were introduced into wells of a 96-well plate in a volume of 125 µl per well, the cell suspension of an equivalent volume was added to it and the plate was preincubated at room temperature for 5 minutes. During the preincubation, FMLP (1 µM, Sigma) solution was added to the lower chamber to set Boyden Chamber, the preincubated cell suspension was added to the upper chamber in a volume of 200 µl per well, and the cells were allowed to migrate at 37°C under 5% carbon dioxide for 30 minutes. The filter after the migration was collected, and the non-migrated cells adhered to the surface that faced the upper chamber were carefully wiped off. Then, the migrated cells on the back surface were stained with DifQuick dye solution (International Reagents), washed with water and dried, and then absorbance was measured at 595 nm. The inhibition ratio against migration (%) of a test compound was calculated by using the following equation: Migration inhibition ratio (%) = (1 -Absorbance of the group with addition of test compound /Absorbance of the group without addition of test compound) x 100 [formula]

Japanese white rabbit = experiment: Intraocular pressure reducing action (Test Example 4); format: in vivo; conditions: for intraocular pressure reducing activity: result in words
Procedure: A Japanese white rabbit having a body weight of about 2 kg was placed in a positioner and naturalized for one week before the experiment. An ophthalmologic local […] (Benoxil) was administered to the left eye, and then intraocular pressure was measured by using a tonometer (Classic 30, Solan). The initial value of the intraocular pressure was measured, then 50 μl of a test compound (1% aqueous solution) was dropped to the left eye, and after 2 hours, the intraocular pressure was measured. The intraocular pressure reducing action of the test compounds is shown in Table 7 mentioned below as ratios (%) of reduction of intraocular pressure based on the initial value of the intraocular pressure.

thoracic aorta = experiment: Vasoconstriction inhibitory action on aorta rings constricted with phenylephrine (Test Example 2); parameters: species or system Rats (Wistar, 11-week old); conditions: result in words; aorta constricted with phenylephrine (1 µM)
Source text: Rats (Wistar, 11-week old) were bleeded to death and laparotomized to take out the thoracic aorta.

[3] = Homo sapiens, Neutrophil, 5 min

| Structure (SMILES) | constriction of respiratory tract (airway resistance value) [1] | IC50 [2, 3] [µM] | IC50 (Neutrophils) [µM] | IC50 ([2]; hydrochloride) [µM] | inhibition in vivo at 1 % (Japanese white rabbit; Oryctolagus cuniculus, topical, 50 µl of test compound (1% aqueous solution) dropped to the left eye, after 2 hours, read-out: Intraocular pressure reducing action (reduction ratio) (%)) [%] | vasoconstriction inhibitory action (thoracic aorta) | intraocular pressure reducing activity (Japanese white rabbit) | Intraocular pressure reducing action (reduction ratio) (%) (Japanese white rabbit; 50 µl of test compound (1% aqueous solution) dropped to the left eye, after 2 hours) |
| --- | --- | --- | --- | --- | --- | --- | --- | --- |
| Cl.Nc1nccc2c(OCC3CCCNC3)cccc12 (stereo not shown) [Example 11, 3-[(1-Amino-5-isoquinolyl)oxy]methylpiperidine hydrochloride] | significantly improved the constriction of respiratory tract | 1 to 20 | 1 to 10 |  |  |  |  |  |
| Brc1cncc2cccc(NC3CCNCC3)c12 [Example 103, 4-(4-Bromo-5-isoquinolyl)aminopiperidine hydrochloride] |  | ≤ 40 | 1 to 10 | ≤ 20 | 31.3 |  |  |  |
| CCc1cncc2cccc(NC3CCNCC3)c12.Cl [Example 113, 4-(4-Ethyl-5-isoquinolyl)aminopiperidine hydrochloride] |  | ≤ 40 | ≤ 40 | ≤ 20 |  | significant vasoconstriction inhibitory action | significant intraocular pressure reducing activity |  |
| Cl.Clc1cncc2cccc(NC3CCNCC3)c12 [Example 118, 4-(4-Chloro-5-isoquinolyl)aminopiperidine hydrochloride] | significantly improved the constriction of respiratory tract | ≤ 40 |  | ≤ 20 |  |  |  |  |
| Cc1cncc2cccc(N[C@H]3CC[C@@H](N)CC3)c12.Cl [Example 120, Cis-N-(4-methyl-5-isoquinolyl)-1,4-cyclohexanediamine hydrochloride] |  | ≤ 40 |  | ≤ 20 |  | significant vasoconstriction inhibitory action | significant intraocular pressure reducing activity |  |
| Cc1cncc2cccc(N[C@H]3CC[C@H](N)CC3)c12.Cl [Example 121, Trans-N-(4-methyl-5-isoquinolyl)-1,4-cyclohexanediamine hydrochloride] | significantly improved the constriction of respiratory tract | ≤ 40 | 1 to 10 | ≤ 20 |  | significant vasoconstriction inhibitory action |  |  |
| CS(=O)(=O)c1ccc(CCCN(CCCN)S(=O)(=O)c2cccc3cnccc23)cc1.Cl [Example 124, N-[(5-Isoquinolyl)sulfonyl]-N-[3-(4-methanesulfonyl)phenylpropyl]-1,3-propylenediamine hydrochloride] |  |  |  | ≤ 20 |  |  |  | 12.5 |
| Cl.N[C@H]1CC[C@H](Oc2cccc3cncc(Br)c23)CC1 [Example 133, Trans-4-[(4-bromo-5-isoquinolyl)oxy]cyclohexylamine hydrochloride] | significantly improved the constriction of respiratory tract | ≤ 40 |  | ≤ 20 |  |  | significant intraocular pressure reducing activity |  |
| Cl.N#Cc1cncc2cccc(O[C@H]3CC[C@H](N)CC3)c12 [Example 134, Trans-4-[(4-cyano-5-isoquinolyl)oxy]cyclohexylamine hydrochloride] |  | ≤ 40 |  | ≤ 20 |  | significant vasoconstriction inhibitory action | significant intraocular pressure reducing activity |  |
| Cl.N[C@H]1CC[C@H](Oc2cccc3cnccc23)CC1 [Example 135, Trans-4-[(5-isoquinolyl)oxy]cyclohexylamine hydrochloride] |  | ≤ 40 |  | ≤ 20 |  |  | significant intraocular pressure reducing activity |  |
| C=Cc1cncc2cccc(O[C@H]3CC[C@H](N)CC3)c12.Cl [Example 136, Trans-4-[(4-vinyl-5-isoquinolyl)oxy]cyclohexylamine hydrochloride] |  | ≤ 40 | ≤ 40 | ≤ 20 |  | significant vasoconstriction inhibitory action | significant intraocular pressure reducing activity |  |
| Cc1cncc2cccc(OC3CCNCC3)c12.Cl [Example 139, 4-[(4-Methyl-5-isoquinolyl)oxy]piperidine hydrochloride] |  | ≤ 40 |  | ≤ 20 |  | significant vasoconstriction inhibitory action | significant intraocular pressure reducing activity |  |
| Cc1cncc2cccc(O[C@H]3CC[C@H](N)CC3)c12.Cl [Example 140, Trans-4-[(4-methyl-5-isoquinolyl)oxy]cyclohexylamine hydrochloride] | significantly improved the constriction of respiratory tract | ≤ 40 |  | ≤ 20 |  | significant vasoconstriction inhibitory action | significant intraocular pressure reducing activity |  |
| Cl.OCCN1CCC(Nc2cccc3cnccc23)CC1 [Example 144, 1-(2-Hydroxyethyl)-4-(5-isoquinolyl)aminopiperidine hydrochloride] | significantly improved the constriction of respiratory tract | ≤ 40 |  |  |  |  | significant intraocular pressure reducing activity |  |
| Cl.OCCCN1CCC(Nc2cccc3cnccc23)CC1 [Example 145, 1-(3-Hydroxypropyl)-4-(5-isoquinolyl)aminopiperidine hydrochloride] |  | ≤ 40 | ≤ 40 | ≤ 20 |  |  | significant intraocular pressure reducing activity |  |
| Cc1cncc2cccc(NC3CCN(CCO)CC3)c12.Cl [Example 146, 1-(2-Hydroxyethyl)-4-(4-methyl-5-isoquinolyl)aminopiperidine hydrochloride] | significantly improved the constriction of respiratory tract | ≤ 40 | ≤ 40 | ≤ 20 |  | significant vasoconstriction inhibitory action | significant intraocular pressure reducing activity |  |
